Assay results as given in patent publication US5624948A, “1-(2-benzimidazolyl)-1,5-diazacyclooctane compounds” (Kissei Pharmaceutical Co., Ltd., priority 1993, dated 1997).

Key:
histamine H1-receptor = molecular target: T1, histamine H1-receptor (Cavia porcellus, UniProt P31389); assay: receptor binding assay in blocking 3H-pyrilamine binding to histamine H1-receptor site in guinea pig cerebellum; settings: read-out: 50% inhibitory activity (concentration producing 50% reduction of the binding of the labeled ligand)
T1 construct: histamine H1 -receptor site in guinea pig cerebellum; from tissue; host or cells: guinea pig cerebellum
T1 sequence (P31389 whole entry): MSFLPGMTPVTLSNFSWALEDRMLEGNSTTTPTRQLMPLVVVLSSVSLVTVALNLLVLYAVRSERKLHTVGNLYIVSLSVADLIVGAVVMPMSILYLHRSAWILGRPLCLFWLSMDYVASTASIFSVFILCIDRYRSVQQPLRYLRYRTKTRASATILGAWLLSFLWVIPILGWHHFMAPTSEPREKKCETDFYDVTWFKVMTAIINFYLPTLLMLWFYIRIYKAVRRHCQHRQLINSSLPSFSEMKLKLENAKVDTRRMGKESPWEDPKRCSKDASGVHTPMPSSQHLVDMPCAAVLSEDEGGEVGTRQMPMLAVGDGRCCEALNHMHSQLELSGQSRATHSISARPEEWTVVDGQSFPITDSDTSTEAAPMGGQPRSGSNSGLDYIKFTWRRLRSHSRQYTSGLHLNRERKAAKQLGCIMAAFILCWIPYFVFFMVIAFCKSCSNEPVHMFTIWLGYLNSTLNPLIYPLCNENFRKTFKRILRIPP
Source text: The pharmacological activity of the 1-(2-benzimidazolyl)-1,5-diazacyclooctane compounds of the present invention can be confirmed by receptor binding assay in blocking 3H-pyrilamine binding to histamine H1 -receptor site in guinea pig cerebellum. The 1-(2-benzimidazolyl)-1,5-diazacyclooctane compounds of the present invention show a potent histamine H1 -receptor antagonistic activity, and produce a 50% inhibitory activity in a range of about 10^-10 to 10^-8 M (concentration producing 50% reduction of the binding of the labeled ligand).

[1] = test system: DNP-As-induced bronchoconstriction; assay: guinea pig antigen-induced bronchoconstriction model (DNP-As-induced, inhalation of compound); assay type: in vivo; settings: 0.01 mg/ml solution, inhalation for 1 minute with ultrasonic nebulizer, DNP-As 100 μg protein/ml, 1 ml/kg, i.v.
Source text: In the guinea pig antigen-induced bronchoconstriction model, the 1-(2-benzimidazolyl)-1,5-diazacyclooctane compounds of the present invention also show a potent antiallergic activity and a long-lasting efficacy.

in vitro = assay type: cell-based; settings: human, nhek keratinocytes
Description: The 1-(2-benzimidazolyl)-1,5-diazacyclooctane compounds of the present invention show a weak cytotoxicity toward normal human epidermal keratinocytes (NHEK) growth. […] In comparison, the NR50 value of Astemizole is about 4.42 μM.

bronchial tissues = settings: topical formulation applied to the bronchia; cited from earlier work

| IC50 (histamine H1-receptor) [nM] | SMILES | inhibition of DNP-As-induced bronchoconstriction at 4 hours after inhalation [1] | inhibition of DNP-As-induced bronchoconstriction at 8 hours after inhalation [1] | CC50 (in vitro) [µM] | irritation to bronchial tissues (in words) (bronchial tissues) |
| --- | --- | --- | --- | --- | --- |
| ~0.575 | O=C(O)CCc1ccc(CCN2CCCN(c3nc4ccccc4n3Cc3ccc(F)cc3)CCC2)cc1 [Compound 16, 5-[2-[4-(2-Carboxyethyl)phenyl]ethyl]-1-[1-(4-fluorophenylmethyl)-1H-benzimidazol-2-yl]-1,5-diazacyclooctane] | about 54.6% | about 44.7% | ~789 | – |
| – | COc1ccc(CCN2CCC(Nc3nc4ccccc4n3Cc3ccc(F)cc3)CC2)cc1 [Astemizole] | about 37.5% | about 29.3% | ~4.42 | strong irritation to bronchial tissues |
